Data on four compounds can be found in patent US4921958A, “Piperazinylalkylcarboxylic acid adamantylamides” (American Home Products Corporation, priority 1989, dated 1990).

Read-outs that look alike come from different tables or passages of the source.

For test [1], the target named is T1, limbic D2 (dopamine) receptor (Rattus norvegicus, UniProt P61169).
T1 construct: from tissue; host or cells: limbic brain tissue
Put plainly: Inhibition of 3H-spiroperidol binding to limbic brain tissue (D2 receptor affinity; modified Fields et al. and Yamamura et al.). To be noted: 1 μM test compound. The protocol: The compounds of this invention are antidepressant, anxiolytic agents useful in the treatment of depression and/or anxiety as a singular, primary mental problem as well as secondary, attending problems such as sexual dysfunction. […] The D2 receptor affinity of the compounds of this invention was determined by a modification of the test procedure of Fields et al., Brain Res. 136, 578 (1977) and Yamamura et. al., eds., Neurotransmitter Receptor Binding, Raven Press, N.Y. (1978) as discussed in U.S. No. 4,636,563. The percentage reduction of ^3 H-spiroperidol binding at 1 μM concentration of test compound is reported, infra.

For test [2], the target named is T2, 5-HT1A serotonin receptor subtype (Rattus norvegicus, UniProt P19327).
T2 construct: from tissue
T2 sequence (P19327 1-422): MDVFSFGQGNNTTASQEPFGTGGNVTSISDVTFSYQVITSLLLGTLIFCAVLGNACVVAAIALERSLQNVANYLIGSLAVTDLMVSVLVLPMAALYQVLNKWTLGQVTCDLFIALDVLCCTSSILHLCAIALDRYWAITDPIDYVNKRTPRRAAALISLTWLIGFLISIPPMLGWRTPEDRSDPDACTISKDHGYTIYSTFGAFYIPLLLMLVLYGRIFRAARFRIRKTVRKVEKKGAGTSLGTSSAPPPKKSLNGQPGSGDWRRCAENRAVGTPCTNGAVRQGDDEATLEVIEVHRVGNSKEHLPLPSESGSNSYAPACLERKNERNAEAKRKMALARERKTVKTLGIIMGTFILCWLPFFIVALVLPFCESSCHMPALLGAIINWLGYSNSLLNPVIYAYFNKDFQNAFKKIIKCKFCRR
Put plainly: Displacement of 3H-8-OH DPAT from the 5-HT1A serotonin receptor subtype (Hall et al.). It counts as binding. To be noted: for inhibition at 1 µM: 1 μM test compound, read-out: % Inhibition at 1 μM (Affinity for 5-HT1A Receptor Sites); for Ki: calculated from appropriate IC50 values, 3H-8-OH DPAT, read-out: Ki (Affinity for 5-HT1A Receptor Sites).
From the text: The serotoninergic properties of the compounds of this invention were established by the procedure of Hall et al., J. Neurochem.

The conditions of test [3]: in words, Barone et al., 1986; cited from earlier work.
The mark [4] stands for this setting: 3H-spiroperidol, read-out: % Inhibition at 1 μM (Affinity for D2 Receptor Sites).

T1 sequence (P61169 whole entry): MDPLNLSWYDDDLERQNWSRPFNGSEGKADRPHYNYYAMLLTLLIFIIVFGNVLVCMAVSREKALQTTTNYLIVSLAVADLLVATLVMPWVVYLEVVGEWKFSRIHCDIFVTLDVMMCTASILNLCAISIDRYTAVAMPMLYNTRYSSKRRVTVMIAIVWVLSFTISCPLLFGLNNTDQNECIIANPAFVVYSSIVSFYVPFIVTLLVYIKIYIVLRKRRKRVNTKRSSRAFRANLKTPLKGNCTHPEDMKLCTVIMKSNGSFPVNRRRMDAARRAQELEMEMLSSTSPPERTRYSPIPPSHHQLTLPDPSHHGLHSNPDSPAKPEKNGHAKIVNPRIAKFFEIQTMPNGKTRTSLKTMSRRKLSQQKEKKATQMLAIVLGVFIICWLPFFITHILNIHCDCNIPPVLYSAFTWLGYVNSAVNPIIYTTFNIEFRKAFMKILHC

Broadly, the inhibition is the share of the control response that was lost under treatment. As a reminder, the Ki is the dissociation constant of the complex between target and ligand, obtained from inhibition or displacement. As to `COc1ccccc1N1CCN(CCC(=O)NC23CC4CC(CC(C4)C2)C3)CC1` [Example 2, 4-(2-methoxyphenyl)-N-tricyclo[3.3.1.1(3,7)]dec-1-yl-1-piperazinepropanamide], the inhibition at 1 µM stood at 74% in test [1] (setting [4]); 74% in test [1] (limbic brain tissue, read-out: inhibition of 3H-spiroperidol binding to limbic brain tissue); 100% in test [2] (displacement of 3H-8-OH DPAT). The inhibition at 0.1 µM in test [2] (100 nM test compound, displacement of 3H-8-OH DPAT, read-out: % Inhibition at 100 nM (Affinity for 5-HT1A Receptor Sites)) came out at 86%. In addition, in test [2], the inhibition constant Ki is 9 nM.

Consider `O=C(CCN1CCN(c2ncccn2)CC1)NC12CC3CC(CC(C3)C1)C2` [Example 1, 4-(2-pyrimidyl)-N-tricyclo[3.3.1.1(3.7)]dec-1-yl-1-piperazinepropanamide], for which the inhibition at 1 µM in test [1] (setting [4]) came to 14%; in test [2] (displacement of 3H-8-OH DPAT), 79%. Further, the Ki in test [2] was 130 nM.

As to `COc1ccccc1N1CCN(CC(C(=O)NC23CC4CC(CC(C4)C2)C3)c2ccccc2)CC1` (stereo not shown) [Example 3, N-(1-Tricyclo[3.3.1.1(3,7)]decyl)-3-[1-[4-(2-methoxyphenyl)piperazinyl]]-2-phenylpropanamide], the Ki in test [2] was 83 nM.

Consider `Cc1nc2sccn2c(=O)c1CCN1CCC(=C(c2ccc(F)cc2)c2ccc(F)cc2)CC1` [Ritanserin], for which the “clinical efficacy as anxiolytic-antidepressant agents” value in test [3] is given as “demonstrate clinical efficacy”.
